Counter-ions that a name gives are not always drawn.
biological target: T1, PAF receptor (Oryctolagus cuniculus, UniProt G1TEI7); experiment: PAF receptor binding assay ([^3 H]C18 -PAF, rabbit platelet membranes); settings: 0.6 nM [^3 H]C18 -PAF, 60 min, 22-23 °C, Ki from IC50 by Cheng and Prusoff
T1 construct: platelet membranes were prepared by centrifugation and washing; tissue Pel-Freez (Rogers, AR); host or cells: rabbit platelets from citrated whole blood (membranes)
Description: The ability of representative compounds of the present invention to inhibit PAF activity was determined in an in vitro test using the following method. Citrated whole rabbit blood was obtained from Pel-Freez (Rogers, AR). Rabbit platelets were prepared by centrifugation and washing. The platelets were lysed by freeze-thawing and sonication; platelet membranes were prepared by centrifugation and washing. Final membrane preparations were stored frozen in 10 mM Tris/5 mM MgCl2 /2 mM EDTA (TME buffer, pH 7.0) with 0.25M sucrose added for membrane stabilization. […] The final volume of the assay was 100 μl. The assay was conducted in […] (Millipore Corp.) filtration plates; incubation time was for 60 minutes at room temperature (22°-23° C.). "Specific binding" was operationally defined as the arithmetic difference between "total binding" of 0.6 nM [^3 H]C18 -PAF (in the absence of added PAF) and "nonspecific binding" (in the presence of 1 μM PAF). After the prescribed incubation, platelet membranes were filtered under vacuum, and washed with 1 millilitre of "binding buffer". The filters were dried and removed. The bound radioactivity was quantitated with a Berthold TLC-Linear Analyzer model LB2842. Dose-response curves of inhibition of specific [^3 H]C18 -PAF binding by test compounds were conducted in triplicate, with at least four doses covering the active range. Experiments were repeated at least once. IC50 values (concentration producing 50% inhibition) were determined by point-to-point evaluation. Ki values of inhibitory binding constants were calculated according to the method of Cheng and Prusoff [Biochem. Pharmacol. 22 (1973) 3099-3108] whereby [formula] The values of Ki for representative compounds of the present invention appear in Table 1.

T1 sequence (G1TEI7 1-342): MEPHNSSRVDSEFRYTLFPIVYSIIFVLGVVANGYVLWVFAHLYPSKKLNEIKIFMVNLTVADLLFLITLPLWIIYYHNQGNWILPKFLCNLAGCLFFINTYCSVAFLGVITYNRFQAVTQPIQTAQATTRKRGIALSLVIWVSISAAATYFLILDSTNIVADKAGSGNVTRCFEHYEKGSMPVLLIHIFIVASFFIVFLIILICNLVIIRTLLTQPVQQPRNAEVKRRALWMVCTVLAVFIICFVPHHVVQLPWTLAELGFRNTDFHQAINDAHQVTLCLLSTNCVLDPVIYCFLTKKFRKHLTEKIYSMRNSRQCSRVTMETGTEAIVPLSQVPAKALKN

Row | Molecule | Ki [nM]
1 | COc1cc(C(=O)c2cccc(NC[C@H]3CC[C@@H](c4cccnc4)N3)c2)cc(OC)c1OC (relative stereo) [13 (cis), N-[3-(3,4,5-trimethoxybenzoyl)phenyl][2-(3-pyridyl)-pyrrolidin-5-yl]methylamine] | 2300
2 | COc1cc(C(=O)c2cccc(NC[C@H]3CC[C@H](c4cccnc4)N3)c2)cc(OC)c1OC (relative stereo) [13 (trans), N-[3-(3,4,5-trimethoxybenzoyl)phenyl][2-(3-pyridyl)-pyrrolidin-5-yl]methylamine] | 8700
3 | COc1cc(C(=O)c2cccc(NCC3CSC(c4cccnc4)N3C(=O)OC(C)(C)C)c2)cc(OC)c1OC (single isomer, unassigned) [Example 1a] | 6770
4 | COc1cc(C(=O)c2cccc(NCC3CSC(c4cccnc4)N3C(=O)OC(C)(C)C)c2)cc(OC)c1OC (single isomer, unassigned) [Example 1b] | 13000
5 | COc1cc(C(=O)c2cccc(NCC3CSC(c4cccnc4)N3)c2)cc(OC)c1OC (stereo not drawn) [Example 2, N-[3-(3,4,5-trimethoxybenzoylphenyl]2-(3-pyridinyl)thiazolid-4-ylmethylaminetrihydrochloride] | 10
6 | CC(C)(C)OC(=O)N1C(CNc2cccc(C(=O)c3ccccc3)c2)CSC1c1cccnc1 (stereo not drawn) [Example 3, N-(3-benzoylphenyl)2-(3-pyridinyl)-3-tert-butoxycarbonylthiazolid-4-ylmethylamine] | 8700
7 | O=C(c1ccccc1)c1cccc(NCC2CSC(c3cccnc3)N2)c1 (stereo not drawn) [Example 4, N-(3-benzoylphenyl)2-(3-pyridinyl)thiazolid-4-ylmethylamine] | 23
8 | O=C(c1ccccc1)c1cccc(NCC2CSC(c3cccnc3)N2)c1 (stereo not drawn) [Example 5, N-(3-benzoylphenyl)2-(3-pyridinyl)thiazolid-4-ylmethylamine trihydrochloride] | 38
9 | O=C(c1ccccc1)c1ccccc1NCC1CSC(c2cccnc2)N1 (stereo not drawn) [Example 6, N-(2-benzoylphenyl)2-(3-pyridinyl)thiazolid-4-ylmethylamine] | 430
10 | O=C(c1ccccc1)c1ccc(NCC2CSC(c3cccnc3)N2)cc1 (stereo not drawn) [Example 7, N-(4-benzoylphenyl)2-(3-pyridinyl)thiazolid-4-ylmethylamine] | 1200
11 | c1ccc(Oc2ccc(NCC3CSC(c4cccnc4)N3)cc2)cc1 (stereo not drawn) [Example 8, N-(4-phenoxyphenyl)2-(3-pyridinyl)thiazolid-4-ylmethylamine] | 190
12 | CN1C(CNc2cccc(C(=O)c3ccccc3)c2)CSC1c1cccnc1 (stereo not drawn) [Example 9, N-(3-benzoylphenyl)[2-(3-pyridinyl)-3-methylthiazolid-4-yl]methylamine dihydrochloride] | 1400
13 | O=C(c1ccccc1)c1cccc(NCC2CSC(c3cccnc3)S2)c1 (stereo not drawn) [Example 11, N-(3-benzoylphenyl)2-(3-pyridinyl)dithiolan-4-ylmethylamine] | 160
14 | CN(CC1CSC(c2cccnc2)N1)c1cccc(C(=O)c2ccccc2)c1 (stereo not drawn) [Example 12, N-(3-benzoylphenyl) N-methyl 2-(3-pyridinyl)thiazolid-4-ylmethylamine trihydrochloride] | 3400
15 | COc1cc(C(=O)c2cccc(NC(=O)NCC3CSC(c4cccnc4)N3)c2)cc(OC)c1OC (stereo not drawn) [Example 14, N-[2-(3-pyridinyl)thiazolid-4-ylmethyl]-N'-[3-(3,4,5-trimethoxybenzoyl)phenyl]urea] | 110
16 | O=C(NCC1CSC(c2cccnc2)N1)Nc1cccc(C(=O)c2ccccc2)c1 (stereo not drawn) [Example 15, N-[2-(3-pyridinyl)thiazolid-4-ylmethyl]N'-(3-benzoylphenyl)urea dihydrochloride] | 150
17 | O=C(NCC1CSC(c2cccnc2)S1)Nc1cccc(C(=O)c2ccccc2)c1 (stereo not drawn) [Example 16, N-[2-(3-pyridinyl)dithiolan-4-ylmethyl]N'-(3-benzoylphenyl)urea] | 750
18 | N-[3-(3,4,5-trimethoxybenzoylphenyl]2-(3-pyridinyl)dithiolan-4-ylmethylamine dihydrochloride [Example 10] | 900

Source: patent US5149704A, “Platelet activating antagonists” (Abbott Laboratories, priority 1991, dated 1992)
